Data on three compounds can be found in patent US10604554B2, “Double-acylated GLP-1 derivatives” (Novo Nordisk A/S, priority 2012, dated 2020).

Data set [1] can be described thus: in vivo. The settings on record: male, Göttingen, minipig, iv.
Method: The purpose of this study is to determine the protraction in vivo of the GLP-1 derivatives after i.v. administration to minipigs, i.e. the prolongation of their time of action. This is done in a pharmacokinetic (PK) study, where the terminal half-life of the derivative in question is determined. By terminal half-life is generally meant the period of time it takes to halve a certain plasma concentration, measured after the initial distribution phase.
Study A: Male Göttingen minipigs were obtained from Ellegaard Göttingen Minipigs (Dalmose, Denmark) approximately 7-14 months of age and weighing from approximately 16-35 kg were used in the studies. The minipigs were housed individually and fed restrictedly once or twice daily with SDS minipig diet (Special Diets Services, Essex, UK). After at least 2 weeks of acclimatisation two permanent central venous catheters were implanted in vena cava caudalis or cranialis in each animal. The animals were allowed 1 week recovery after the surgery, and were then used for repeated pharmacokinetic studies with a suitable wash-out period between successive GLP-1 derivative dosings.
The animals were fasted for approximately 18 h before dosing and from 0 to 4 h after dosing, but had ad libitum access to water during the whole period.
The GLP-1 derivatives were dissolved in 50 mM sodium phosphate, 145 mM sodium chloride, 0.05% tween 80, pH 7.4 to a concentration of usually from 20-60 nmol/ml. […] Blood samples (for example 0.8 ml) were collected in EDTA buffer (8 mM) and then centrifuged at 4° C. and 1942 G for 10 minutes.
Study B: Male Göttingen minipigs were obtained from Ellegaard Göttingen Minipigs (Dalmose, Denmark) approximately 5 months of age and weighing from approximately 9 kg were used in the studies. The minipigs were housed in pens with straw as bedding, six together in each pen and fed restrictedly once or twice daily with Altromin 9023 minipig diet (Chr. Petersen A/S, DK-4100 Ringsted) or Standard SMP(E) minipig diet (Special Diet Services (SDS), UK). The pigs were used for repeated pharmacokinetic studies with a suitable wash-out period between successive GLP-1 derivative dosings.
The GLP-1 derivatives were dissolved in 50 mM sodium phosphate, 145 mM sodium chloride, 0.05% tween 80, pH 7.4 to a concentration of usually from 20-60 nmol/ml. Intravenous injections (the volume corresponding to usually 2 nmol/kg, for example 0.1 ml/kg) of the compounds were given as intravenous injections via a Venflon inserted in an ear vein, while they are placed unanaesthetised in a sling. The dose volume was 0.1 ml/kg, and blood was sampled at predefined time points for up till 17 days post dosing (samples was taken with syringe from a jugular vein).
Individual plasma concentration-time profiles were analyzed by a non-compartmental model in Phoenix WinNonLin ver. […] (Pharsight Inc., Mountain View, Calif., USA), and the resulting terminal half-lives (harmonic mean) determined.
The nature of data set [2]: in vivo. Particulars: male, Sprague Dawley, rat, iv.
Data set [3] has as its system Landrace Yorkshire Duroc (LYD) pigs. The data set can be described thus: Pharmacodynamic (PD) study in pigs, food intake. Particulars: single s.c. dose 3.0 nmol/kg; for PD in pig, food intake (% of vehicle) for hours 0-24: 0-24 h; for PD in pig, food intake (% of vehicle) for hours 24-48: 24-48 h. The format is in vivo, pig. The method in brief: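 Female LYD pigs (~3 months, 30-35 kg, n=3-4) in individual pens, fed ad libitum, received one subcutaneous dose (3.0 nmol/kg) in phosphate buffer vehicle on day 1. Food intake was logged every 15 min and expressed per 24 h interval as percentage of vehicle group; two-way repeated-measures ANOVA with Bonferroni post-test.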

In a further data set the target is T1, human GLP-1 receptor (Homo sapiens, UniProt P43220).
T1 construct: expressed in transfected cells; host or cells: BHK cells, clone FCW467-12A/KZ10-1 (parent line BHKTS13), further transfected with CRE luciferase
The data set can be described thus: In vitro potency (AlphaScreen cAMP, membranes). The data set is classed as biochemical. The settings on record: cAMP formation in membranes from BHK467-12A cells expressing human GLP-1 receptor; read-out: In vitro potency (AlphaScreen) EC50. Summed up: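 AlphaScreen competition read-out (anti-cAMP acceptor beads vs biotinylated cAMP, 3 h room temperature) quantified cAMP made by human GLP-1 receptor membranes, 6 μg/well, from stably transfected BHK467-12A cells. Buffer pH 7.4 contained 1 mM ATP, 1 μM GTP, 0.5 mM IBMX and 0.1% BSA; cAMP standard curve included.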
Background: Alpha assays give light when donor and acceptor beads are brought close together.

The term half-life denotes how long it takes for the measured level to halve. Read a high half-life as slow loss. By EC50 is commonly meant the concentration that produces a half-maximal response.

T1 sequence (P43220 24-463): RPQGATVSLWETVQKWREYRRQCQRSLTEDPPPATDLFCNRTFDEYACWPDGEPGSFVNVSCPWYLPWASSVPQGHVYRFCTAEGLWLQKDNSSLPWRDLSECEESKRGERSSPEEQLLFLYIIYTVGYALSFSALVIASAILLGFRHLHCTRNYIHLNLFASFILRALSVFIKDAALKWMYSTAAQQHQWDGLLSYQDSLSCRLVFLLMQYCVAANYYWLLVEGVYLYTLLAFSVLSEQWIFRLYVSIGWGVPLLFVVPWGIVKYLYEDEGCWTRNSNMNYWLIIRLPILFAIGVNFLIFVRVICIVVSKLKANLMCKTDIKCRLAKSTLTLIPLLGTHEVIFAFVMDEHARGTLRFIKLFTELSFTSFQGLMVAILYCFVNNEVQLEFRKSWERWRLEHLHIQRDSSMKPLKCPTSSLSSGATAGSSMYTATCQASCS

As for `CC[C@H](C)[C@H](NC(=O)[C@H](Cc1ccccc1)NC(=O)[C@H](CCC(=O)O)NC(=O)[C@H](CCCCNC(=O)[C@@H](N)CCCCNC(=O)COCCOCCNC(=O)COCCOCCNC(=O)CC[C@H](NC(=O)CCCCCCCCCCCCCCC(=O)O)C(=O)O)NC(=O)[C@H](C)NC(=O)[C@H](C)NC(=O)[C@H](CCC(N)=O)NC(=O)CNC(=O)[C@H](CCC(=O)O)NC(=O)[C@H](CC(C)C)NC(=O)[C@H](Cc1ccc(O)cc1)NC(=O)[C@H](CO)NC(=O)[C@H](CO)NC(=O)[C@@H](NC(=O)[C@H](CC(=O)O)NC(=O)[C@H](CO)NC(=O)[C@@H](NC(=O)[C@H](Cc1ccccc1)NC(=O)[C@@H](NC(=O)CNC(=O)[C@H](CCC(=O)O)NC(=O)C(C)(C)NC(=O)[C@@H](N)Cc1c[nH]cn1)[C@@H](C)O)[C@@H](C)O)C(C)C)C(=O)N[C@@H](C)C(=O)N[C@@H](Cc1c[nH]c2ccccc12)C(=O)N[C@@H](CC(C)C)C(=O)N[C@H](C(=O)N[C@@H](CCCNC(=N)N)C(=O)NCC(=O)N[C@@H](CCCNC(=N)N)C(=O)N[C@@H](CCCCNC(=O)[C@@H](N)CCCCNC(=O)COCCOCCNC(=O)COCCOCCNC(=O)CC[C@H](NC(=O)CCCCCCCCCCCCCCC(=O)O)C(=O)O)C(=O)O)C(C)C` [Example 10, N^ε26-[(2S)-2-amino-6-[[2-[2-[2-[[2-[2-[2-[[(4S)-4-carboxy-4-(15-carboxypentadecanoylamino)butanoyl]amino]ethoxy]ethoxy]acetyl]amino]ethoxy]ethoxy]acetyl]amino]hexanoyl], N^ε37-[(2S)-2-amino-6-[[2-[2-[2-[[2-[2-[2-[[(4S)-4-carboxy-4-(15-carboxypentadecanoylamino)butanoyl]amino]ethoxy]ethoxy]acetyl]amino]ethoxy]ethoxy]acetyl]amino]hexanoyl]-[Aib^8,Arg^34,Lys^37]-GLP-1-(7-37)-peptide], the half-life in “in vivo [1]” was 97 h. The same compound had a half-life in the data set “in vivo [2]” of 28 h. For the same compound, in data set [3], the “PD in pig, food intake (% of vehicle) for hours 0-24” value is reported as 105 % of vehicle and the “PD in pig, food intake (% of vehicle) for hours 24-48” value is 104 % of vehicle. The EC50 at human GLP-1 receptor is 0.492 nM.

For `CC[C@H](C)[C@H](NC(=O)[C@H](Cc1ccccc1)NC(=O)[C@H](CCC(=O)O)NC(=O)[C@H](CCCCNC(=O)[C@@H](N)CCCCNC(=O)CC[C@H](NC(=O)CC[C@H](NC(=O)CC[C@H](NC(=O)CCCCCCCCCCCCCCC(=O)O)C(=O)O)C(=O)O)C(=O)O)NC(=O)[C@H](C)NC(=O)[C@H](C)NC(=O)[C@H](CCC(N)=O)NC(=O)CNC(=O)[C@H](CCC(=O)O)NC(=O)[C@H](CC(C)C)NC(=O)[C@H](Cc1ccc(O)cc1)NC(=O)[C@H](CO)NC(=O)[C@H](CO)NC(=O)[C@@H](NC(=O)[C@H](CC(=O)O)NC(=O)[C@H](CO)NC(=O)[C@@H](NC(=O)[C@H](Cc1ccccc1)NC(=O)[C@@H](NC(=O)CNC(=O)[C@H](CCC(=O)O)NC(=O)C(C)(C)NC(=O)[C@@H](N)Cc1c[nH]cn1)[C@@H](C)O)[C@@H](C)O)C(C)C)C(=O)N[C@@H](C)C(=O)N[C@@H](Cc1c[nH]c2ccccc12)C(=O)N[C@@H](CC(C)C)C(=O)N[C@H](C(=O)N[C@@H](CCCNC(=N)N)C(=O)NCC(=O)N[C@@H](CCCNC(=N)N)C(=O)N[C@@H](CCCCNC(=O)[C@@H](N)CCCCNC(=O)CC[C@H](NC(=O)CC[C@H](NC(=O)CC[C@H](NC(=O)CCCCCCCCCCCCCCC(=O)O)C(=O)O)C(=O)O)C(=O)O)C(=O)O)C(C)C` [Example 13, N^ε26-[(2S)-2-amino-6-[[(4S)-4-carboxy-4-[[(4S)-4-carboxy-4-[[(4S)-4-carboxy-4-(15-carboxypentadecanoylamino)butanoyl]amino]butanoyl]amino]butanoyl]amino]hexanoyl], N^ε37-[(2S)-2-amino-6-[[(4S)-4-carboxy-4-[[(4S)-4-carboxy-4-[[(4S)-4-carboxy-4-(15-carboxypentadecanoylamino)butanoyl]amino]butanoyl]amino]butanoyl]amino]hexanoyl]-[Aib^8,Arg^34,Lys^37]-GLP-1-(7-37)-peptide], the half-life in “in vivo [1]” is 93 h; in the data set “in vivo [2]”, 31 h. Further, the EC50 on human GLP-1 receptor was 0.385 nM.

In turn, `CC[C@H](C)[C@H](NC(=O)[C@H](Cc1ccccc1)NC(=O)[C@H](CCC(=O)O)NC(=O)[C@H](CCCCNC(=O)[C@@H](N)CCCCNC(=O)COCCOCCNC(=O)COCCOCCNC(=O)CC[C@H](NC(=O)CCCCCCCCCCCCC(=O)O)C(=O)O)NC(=O)[C@H](C)NC(=O)[C@H](C)NC(=O)[C@H](CCC(N)=O)NC(=O)CNC(=O)[C@H](CCC(=O)O)NC(=O)[C@H](CC(C)C)NC(=O)[C@H](Cc1ccc(O)cc1)NC(=O)[C@H](CO)NC(=O)[C@H](CO)NC(=O)[C@@H](NC(=O)[C@H](CC(=O)O)NC(=O)[C@H](CO)NC(=O)[C@@H](NC(=O)[C@H](Cc1ccccc1)NC(=O)[C@@H](NC(=O)CNC(=O)[C@H](CCC(=O)O)NC(=O)C(C)(C)NC(=O)[C@@H](N)Cc1c[nH]cn1)[C@@H](C)O)[C@@H](C)O)C(C)C)C(=O)N[C@@H](C)C(=O)N[C@@H](Cc1c[nH]c2ccccc12)C(=O)N[C@@H](CC(C)C)C(=O)N[C@H](C(=O)N[C@@H](CCCNC(=N)N)C(=O)NCC(=O)N[C@@H](CCCNC(=N)N)C(=O)N[C@@H](CCCCNC(=O)[C@@H](N)CCCCNC(=O)COCCOCCNC(=O)COCCOCCNC(=O)CC[C@H](NC(=O)CCCCCCCCCCCCC(=O)O)C(=O)O)C(=O)O)C(C)C` [Example 19, N^ε26-[(2S)-2-amino-6-[[2-[2-[2-[[2-[2-[2-[[(4S)-4-carboxy-4-(13-carboxytridecanoylamino)butanoyl]amino]ethoxy]ethoxy]acetyl]amino]ethoxy]ethoxy]acetyl]amino]hexanoyl], N^ε37-[(2S)-2-amino-6-[[2-[2-[2-[[2-[2-[2-[[(4S)-4-carboxy-4-(13-carboxytridecanoylamino)butanoyl]amino]ethoxy]ethoxy]acetyl]amino]ethoxy]ethoxy]acetyl]amino]hexanoyl]-[Aib^8,Arg^34,Lys^37]-GLP-1-(7-37)-peptide] had a half-life in “in vivo [1]” of 56 h. This compound showed a half-life in the data set “in vivo [2]” of 13 h. Moreover, in data set [3], the “PD in pig, food intake (% of vehicle) for hours 0-24” value was 52 % of vehicle and the “PD in pig, food intake (% of vehicle) for hours 24-48” value is recorded as 64 % of vehicle. Moreover, the EC50 on human GLP-1 receptor is 0.057 nM.
